Data as given in US6916851B2, “Skin care cosmetic methods of sebum control using carboxyalkylates of branched alcohols and/or alkoxylates thereof” (Unilever Home & Personal Care USA, a division of Conopco, …, priority 2002, dated 2005).
Marks after values point to notes of the source that are not given here.

Test system: human sebocytes
Experiment: Inhibition of sebocyte lipogenesis (14C-acetate label remaining in sebocytes)
Assay type: cell-based
Settings: for IC50: read-out: IC 50 (concentration which provides a 50% sebum suppression relative to the control); for IC50 / radioactive label remaining in the sebocytes, % of Control: 20 hour incubation, 96 well plate; for radioactive label remaining in the sebocytes, % of Control: lower = greater inhibition of lipogenesis; for inhibition of lipogenesis, in words: all tested concentrations (1, 10, 100 μM)
Procedure: Secondary cultures of human sebocytes obtained from an adult […] were grown in 96-well tissue culture plates (Packard Co.; Meriden, Conn.) until confluent. Sebocyte growth medium consisted of Clonetics Keratinocyte Basal Medium (KBM) supplemented with 14 μg/ml bovine pituitary extract, 0.4 μg/ml hydrocortisone, 5 μg/ml insulin, 10 ng/ml epidermal growth factor, 1.2×10^−10 M cholera toxin, 100 units/ml penicillin, and 100 μg/ml streptomycin. All cultures were incubated at 37° C. in the presence of 7.5% CO2. Medium was changed three times per week.
On the day of experimentation, the growth medium was removed and the sebocytes washed three times with sterile Dulbecco's Modified Eagle Medium (DMEM; phenol red free). Fresh DMEM was added to each sample (duplicates, triplicates, or quadruplicates depending on the experiment) with 5 μL of test agent solubilized in ethanol or sterile, distilled water. Controls consisted of addition of ethanol alone or phenol red. Phenol Red, a known sebum suppressive agent, was employed as a positive control.
Each plate was returned to the incubator for 20 hours followed by the addition of ^14C-acetate buffer (5 mM final concentration, 56 mCi/mmol specific activity). Sebocytes were returned to the incubator for four hours after which each culture was rinsed three times with phosphate buffered saline to remove unbound label. Radioactive label remaining in the sebocytes was harvested and counted using a TopCount-NXT brand scintillation counter (Packard Co., Meriden, Conn.).
The results that were obtained, expressed in terms of amount of radioactive label remaining in the sebocytes as a percent of control, are summarized in Table 2. A lower radioactive label, i.e. a lower % of control, indicates a greater inhibition of sebocyte lipogenesis.
The experiments were conducted using the procedure set forth in the Example 3 above, with the concentrations of the compounds varied, in order to determine the concentration for each compound tested which provide a 50% sebum suppression.

Compound | IC50 | radioactive label remaining in the sebocytes, % of Control (100 μM) | other results
C13 isoalcohol [Compound 4] | 100 µM |  | 
C13 isoalcohol propionitrile [Compound 2] | > 100 µM |  | 
iso-tridecyloxy propionic acid [Compound 1] | 5 µM | 11.9* % of Control | radioactive label remaining in the sebocytes, % of Control (1 μM): 48.7* % of Control; radioactive label remaining in the sebocytes, % of Control (10 μM): 34.6* % of Control; inhibition of lipogenesis, in words: enhanced inhibition of lipogenesis at all tested concentrations; effectiveness in inhibition of lipogenesis relative to TDCM (comparison of Table 2 data): almost twice as effective as TDCM; activity as sebum suppressant relative to the branched alcohol from which it is derived (from IC50 of Table 3): about 20 times
tridecylcarboxymethylate [TDCM] |  | 22.8* % of Control | radioactive label remaining in the sebocytes, % of Control (1 μM): 84.8* % of Control; radioactive label remaining in the sebocytes, % of Control (10 μM): 43.4* % of Control; inhibition of lipogenesis, in words: enhanced inhibition of lipogenesis at all tested concentrations
O=S1(=O)OC(c2ccc(O)cc2)(c2ccc(O)cc2)c2ccccc21 [Phenol Red] |  | 46.3* % of Control | 
C13 isoalcohol oxypropyl amine [Compound 3] | ~100 µM |  | 
C13 isoalcohol glycerol [Compound 5] | > 100 µM |  | 
